According to patent publication US6664231B1, “Anti-fungal peptides” (priority 1993, dated 2003):

These substances were tested on C. albicans (CA-1, Strain SLU-1) (assay: Radial diffusion assay). Conditions: pmoles of peptide added to well to achieve a 30 mm^2 zone, PROBIT analysis; crude or purified (P′) peptide.
Assay type: cell-based, Candida albicans
Summary of the method: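 Peptides, serially diluted 2-fold in D-PBS (top ~1 mg/mL), diffused 3 h at 37° C into pH 7.4 phosphate-buffered agarose seeded with 1×10^6 CFU/mL yeast, before overnight growth under a 6% Sabouraud overlayer. Net inhibition zones measured after Coomassie staining; PROBIT fit of log pmol vs area gave pmol for 30 mm^2.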

Substance	C. albicans pmol/30 mm^2 zone
H-KSKVGWLIQLFHKF-NH2 [XMP.96]	1856 pmol/30 mm^2 zone
H-KSKVGWLIQLFHKKKSKVGWLIFLFHKK-NH2 [XMP.274]	>2,457 pmol/30 mm^2 zone
H-KSKVGWLIQLFHKKKSKVGWLILLFHKK-NH2 [XMP.271]	>1,995 pmol/30 mm^2 zone
H-KSKVGWLIQLFHKKKSKVGWLIQLFHKK-NH2 [XMP.29]	>1469 pmol/30 mm^2 zone
H-KSKVGWLIQLFHKW-NH2 [XMP.108]	>3219 pmol/30 mm^2 zone
H-KSKVGWLIQLFLKK-NH2 [XMP.87]	>1536 pmol/30 mm^2 zone
H-KSKVGWLIQLFWKK-NH2 [XMP.107]	>2796 pmol/30 mm^2 zone
H-KSKVGWLIQLWHKK-NH2 [XMP.82]	518 pmol/30 mm^2 zone
H-KSKVGWLIRLFHKK-NH2 [XMP.265]	2,996 pmol/30 mm^2 zone
H-KSKVGWLISLFHKK-NH2 [XMP.104]	>5569 pmol/30 mm^2 zone
H-KSKVGWLITLFHKK-NH2 [XMP.106]	1032 pmol/30 mm^2 zone
H-KSKVGWLIYLFHKK-NH2 [XMP.125]	>3150 pmol/30 mm^2 zone
H-KSKVKALIQLFHKK-NH2 [XMP.161]	>2999 pmol/30 mm^2 zone
H-KSKVKFLIKLFHKK-NH2 [XMP.283]	1,336 pmol/30 mm^2 zone
H-KSKVKVAIQLFHKK-NH2 [XMP.269]	635 pmol/30 mm^2 zone
H-KSKVKVLIQLFHKK-NH2 [XMP.266]	984 pmol/30 mm^2 zone
H-KSKVKWAIQLFHKK-NH2 [XMP.267]	256 pmol/30 mm^2 zone
H-KSKVKWLIKLFFKFKSKVKWLIKLFFKF-NH2 [XMP.101]	>1040 pmol/30 mm^2 zone
H-KSKVKWLIKLFHKK-NH2 [XMP.100]	462 pmol/30 mm^2 zone
H-KSKVKWLIQLWHKK-NH2 [XMP.124]	351 pmol/30 mm^2 zone
H-KSKVLWLIQLFHKK-NH2 [XMP.85]	>1881 pmol/30 mm^2 zone
H-KSKVWLIQLFHKK-NH2 [XMP.11]	645 pmol/30 mm^2 zone

Substance	C. albicans pmol/30 mm^2 zone
H-KVKWLI-NH2 [XMP.313]	>11,050 pmol/30 mm^2 zone
H-KVKWLIQ-NH2 [XMP.306]	>10,485 pmol/30 mm^2 zone
H-KVKWLIQL-NH2 [XMP.300]	1,957 pmol/30 mm^2 zone
H-KVKWLIQLF-NH2 [XMP.295]	>1,977 pmol/30 mm^2 zone
H-KVKWLIQLFH-NH2 [XMP.291]	>5,039 pmol/30 mm^2 zone
H-KVKWLIQLFHK-NH2 [XMP.288]	>3,062 pmol/30 mm^2 zone
H-KWLIQL-NH2 [XMP.315]	>5,069 pmol/30 mm^2 zone
H-KWLIQLF-NH2 [XMP.308]	b (No detectable activity up to 5 μg/well)
H-KWLIQLFH-NH2 [XMP.302]	>5,497 pmol/30 mm^2 zone
H-LIQLFH-NH2 [XMP.317]	b (No detectable activity up to 5 μg/well)
H-LIQLFHK-NH2 [XMP.310]	>9,475 pmol/30 mm^2 zone
H-LIQLFHKK-NH2 [XMP.304]	>8,290 pmol/30 mm^2 zone
H-QLFHKK-NH2 [XMP.319]	b (No detectable activity up to 5 μg/well)
H-RRWLIQLRR-NH2 [XMP.336]	>7,332 pmol/30 mm^2 zone
H-SKVKWL-NH2 [XMP.312]	>11,120 pmol/30 mm^2 zone
H-SKVKWLI-NH2 [XMP.305]	>10,228 pmol/30 mm^2 zone
H-SKVKWLIQ-NH2 [XMP.299]	>8,768 pmol/30 mm^2 zone
H-SKVKWLIQL-NH2 [XMP.294]	>4,634 pmol/30 mm^2 zone
H-SKVKWLIQLF-NH2 [XMP.290]	>2,233 pmol/30 mm^2 zone
H-SKVKWLIQLFH-NH2 [XMP.287]	>3,509 pmol/30 mm^2 zone
H-SKVKWLIQLFHK-NH2 [XMP.285]	>3,024 pmol/30 mm^2 zone

Same assay, conditions: pmoles of peptide added to well to achieve a 30 mm^2 zone, PROBIT analysis; crude or purified (P′) peptide; listed as XMP.267P′

Substance	C. albicans pmol/30 mm^2 zone [pmol/30 mm^2 zone]
H-KSKVKWAIQLFHKK-NH2 [XMP.267]	106

Same assay, conditions: pmoles of peptide added to well to achieve a 30 mm^2 zone, PROBIT analysis; crude or purified (P′) peptide; listed as XMP.288P′

Substance	C. albicans pmol/30 mm^2 zone [pmol/30 mm^2 zone]
H-KVKWLIQLFHK-NH2 [XMP.288]	279

Same assay, conditions: pmoles of peptide added to well to achieve a 30 mm^2 zone, PROBIT analysis; crude or purified (P′) peptide; listed as XMP.295P′

Substance	C. albicans pmol/30 mm^2 zone
H-KVKWLIQLF-NH2 [XMP.295]	>2,612 pmol/30 mm^2 zone

Same assay, conditions: pmoles of peptide added to well to achieve a 30 mm^2 zone, PROBIT analysis; crude or purified (P′) peptide; listed as XMP.300P′

Substance	C. albicans pmol/30 mm^2 zone [pmol/30 mm^2 zone]
H-KVKWLIQL-NH2 [XMP.300]	993

Same assay, conditions: pmoles of peptide added to well to achieve a 30 mm^2 zone, PROBIT analysis; crude or purified (P′) peptide; listed as XMP.302P′

Substance	C. albicans pmol/30 mm^2 zone
H-KWLIQLFH-NH2 [XMP.302]	2,070 pmol/30 mm^2 zone

Same assay, conditions: pmoles of peptide added to well to achieve a 30 mm^2 zone, PROBIT analysis; crude or purified (P′) peptide; listed as XMP.315P′

Substance	C. albicans pmol/30 mm^2 zone
H-KWLIQL-NH2 [XMP.315]	>12,853 pmol/30 mm^2 zone

Same assay, conditions: pmoles of peptide added to well to achieve a 30 mm^2 zone, PROBIT analysis; crude or purified (P′) peptide; listed as XMP.336P′

Substance	C. albicans pmol/30 mm^2 zone
H-RRWLIQLRR-NH2 [XMP.336]	h (inactive to 5,268 pmol)
